What all share (assay type): cell-based
For test [1], the system named is Ba/F3 cells expressing EGFR-wt. The test is described as follows: Growth inhibition (GI50) of Ba/F3 cells expressing EGFR-wt, Celltiter glo. As to conditions: Mus musculus, BaF3, 72 h. The essentials:
(§1)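 Viability read by CellTiter-Glo after 72 h compound exposure (37 °C, 5% CO2) of variant-expressing Ba/F3 cells plated at 100,000 cells/ml. Dosing 4 h post-seeding; 10-pt 4-fold series from 2 mM stock; 0.5% DMSO. GI50 = molar concentration (μM) giving half-maximal growth inhibition.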
For orientation: In ATP-based viability assays light output follows the ATP content of the culture.

The subject of test [2] is Ba/F3 cells expressing del19/T790M/C797S (EGFR-DTC). The test is described as follows: Growth inhibition (GI50) of Ba/F3 cells expressing del19/T790M/C797S (EGFR-DTC), Celltiter glo. As to conditions: Mus musculus, BaF3, 72 h. Summed up:
as §1

For test [3], the system named is Ba/F3 cells expressing L858R/T790M/C797S (EGFR-LTC). The test is described as follows: Growth inhibition (GI50) of Ba/F3 cells expressing L858R/T790M/C797S (EGFR-LTC), Celltiter glo. The settings on record: Mus musculus, BaF3, 72 h. Summed up:
as §1

For test [4], the system named is Ba/F3 cells expressing del19/T790M (EGFR-DT). The test is described as follows: Growth inhibition (GI50) of Ba/F3 cells expressing del19/T790M (EGFR-DT), Celltiter glo. As to conditions: Mus musculus, BaF3, 72 h. Here is the method:
(§2) In this experimental example, a determination was made as to whether the compounds prepared in Examples 1-283 have the ability to inhibit the growth of Ba/F3 cells expressing EGFR-wt, del19/T790M/C797S (EGFR-DTC), L858R/T790M/C797S (EGFR-LTC), del19/T790M (EGFR-DT), and L858R/T790M (EGFR-LT) variants.
(§3) The parental Ba/F3 cell line is a population of cells that are not introduced with EGFR variants. Specifically, 100 μl of a cell line expressing each variant was plated in a 96-well plate at a density of 100,000 cells/ml. 10-point, 4-fold serial dilutions of each compound were prepared, starting at 2 mM. After 4 h, 0.5 μl of the compound (0.5% DMSO) was added, followed by incubation at 37° C. and 5% CO2 for 72 h. After incubation, the number of viable cells was measured using a Celltiter glo assay kit (Promega) and the GI50 of the compound was determined. The term “GI50” refers to the molar concentration (μM) of the compound required for 50% growth inhibition of cells.

The subject of test [5] is Ba/F3 cells expressing L858R/T790M (EGFR-LT). The test is described as follows: Growth inhibition (GI50) of Ba/F3 cells expressing L858R/T790M (EGFR-LT), Celltiter glo. As to conditions: Mus musculus, BaF3, 72 h. As for the experimental part:
as §2, §3

The test system of test [6] is parental Ba/F3 cell line. The test is described as follows: Growth inhibition (GI50) of the parental Ba/F3 cell line (not introduced with EGFR variants), Celltiter glo. The settings on record: Mus musculus, BaF3, 72 h, parental Ba/F3 cells. The essentials:
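Viable cell count by CellTiter-Glo after 72 h at 37 °C gave GI50 values (μM, 50% growth inhibition). Cells lacking EGFR variants were seeded at 100,000 cells/ml and dosed 4 h later with 4-fold serial dilutions from a 2 mM stock, 0.5% DMSO.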

From patent US20240228458A1, “PYRIMIDINE DERIVATIVE HAVING PROTEIN KINASE INHIBITORY ACTIVITY, AND THERAPEUTIC PHARMACEUTICAL COMPOSITION COMPRISING SAME” (THERAPEX CO., LTD., priority 2021, published 2024) come the findings set out here.

As usually defined, the GI50 is the concentration that inhibits growth by half.

The structures appear in SMILES notation.

For `COc1cc(N2CCC(N3CCCC(N(C)C)C3)CC2)c(C)cc1Nc1ncc(Br)c(Nc2ccc(F)cc2NS(C)(=O)=O)n1` (stereo not drawn) [Example 39, N-(2-((5-bromo-2-((4-(3-(dimethylamino)-[1,4′-bipiperidin]-1′-yl)-2-methoxy-5-methylphenyl)amino)pyrimidin-4-yl)amino)-5-fluorophenyl)methanesulfonamide], the GI50 fell in the range of 100 to 500 nM in test [1]; 1 to 25 nM in test [2]; 1 to 25 nM in test [3]; 100 to 500 nM in test [4]; 25 to 100 nM in test [5]; 500 to 2000 nM in test [6].

Regarding `Cc1cc(Nc2ncc(Br)c(Nc3ccc(F)cc3NS(C)(=O)=O)n2)c(Cl)cc1N1CCC(N2CCCN(C)CC2)CC1` [Example 44, N-(2-((5-bromo-2-((2-chloro-5-methyl-4-(4-(4-methyl-1,4-diazepan-1-yl)piperidin-1-yl)phenyl)amino)pyrimidin-4-yl)amino)-5-fluorophenyl)methanesulfonamide], the GI50 in test [1] was in the range of 500 to 2000 nM; in test [2], 25 to 100 nM; in test [3] it was 25 to 100 nM; in test [4], 25 to 100 nM; in test [5] it was 100 to 500 nM; in test [6] it was 500 to 2000 nM.

Regarding `Cc1cc(Nc2ncc(Br)c(Nc3ccc(F)cc3NS(C)(=O)=O)n2)c(Cl)cc1N1CCC(N2CCCC(N(C)C)C2)CC1` (stereo not drawn) [Example 45], the GI50 was in the range of 500 to 2000 nM in test [1]; 25 to 100 nM in test [2]; 25 to 100 nM in test [3]; 25 to 100 nM in test [4]; 100 to 500 nM in test [5]; 500 to 2000 nM in test [6].

Take `CNS(=O)(=O)c1ccccc1Nc1nc(Nc2ccc(N3CCN(CCO)CC3)nc2OC)ncc1Cl` [Example 56, 2-((5-chloro-2-((6-(4-(2-hydroxyethyl)piperazin-1-yl)-2-methoxypyridin-3-yl)amino)pyrimidin-4-yl)amino)-N-methylbenzenesulfonamide]: the 50% growth inhibitory concentration (GI50) in test [1] lay within 500 to 2000 nM; in test [2], 500 to 2000 nM; in test [3], 500 to 2000 nM; in test [4] it was 100 to 500 nM; in test [5], 500 to 2000 nM; in test [6], 2000 to 10000 nM.

Take `CNS(=O)(=O)c1ccccc1Nc1nc(Nc2ccc(N3CCC(N(C)C)C3)nc2OC)ncc1Cl` (stereo not drawn) [Example 57, 2-((5-chloro-2-((6-(3-(dimethylamino)pyrrolidin-1-yl)-2-methoxypyridin-3-yl)amino)pyrimidin-4-yl)amino)-N-methylbenzenesulfonamide]: the GI50 lay within 500 to 2000 nM in test [1]; 500 to 2000 nM in test [2]; 500 to 2000 nM in test [3]; 100 to 500 nM in test [4]; 500 to 2000 nM in test [5]; 500 to 2000 nM in test [6].

As to `CNS(=O)(=O)c1ccccc1Nc1nc(Nc2cc(C)c(N3CCC(N4CCN(C)CC4)CC3)nc2OC)ncc1Cl` [Example 58, 2-((5-chloro-2-((2-methoxy-5-methyl-6-(4-(4-methylpiperazin-1-yl)piperidin-1-yl)pyridin-3-yl)amino)pyrimidin-4-yl)amino)-N-methylbenzenesulfonamide], the concentration for 50% growth inhibition (GI50) fell in the range of 100 to 500 nM in test [1]; 100 to 500 nM in test [2]; 100 to 500 nM in test [3]; 100 to 500 nM in test [4]; 500 to 2000 nM in test [5]; 100 to 500 nM in test [6].

Take `CC(=O)Nc1ccc(Cl)cc1Nc1nc(Nc2ccc(N3CCC(N4CCN(C)CC4)CC3)c(F)c2)ncc1Cl` [Example 67, N-(4-chloro-2-((5-chloro-2-((3-fluoro-4-(4-(4-methylpiperazin-1-yl)piperidin-1-yl)phenyl)amino)pyrimidin-4-yl)amino)phenyl)acetamide]: the GI50 fell in the range of 100 to 500 nM in test [1]; 25 to 100 nM in test [2]; 25 to 100 nM in test [3]; 100 to 500 nM in test [4]; 100 to 500 nM in test [5]; 2000 to 10000 nM in test [6].

Regarding `CC(=O)Nc1ccccc1Nc1nc(Nc2cnc(N3CCC(N4CCN(C)CC4)CC3)c(F)c2)ncc1Cl` [Example 70, N-(2-((5-chloro-2-((5-fluoro-6-(4-(4-methylpiperazin-1-yl)piperidin-1-yl)pyridin-3-yl)-amino)pyrimidin-4-yl)amino)phenyl)acetamide], the GI50 fell in the range of 100 to 500 nM in test [1]; 25 to 100 nM in test [2]; 25 to 100 nM in test [3]; 25 to 100 nM in test [4]; 25 to 100 nM in test [5]; 500 to 2000 nM in test [6].

With `COc1cc(N2CCC(N3CCN(C)CC3)CC2)c(C)cc1Nc1ncc(Cl)c(Nc2cc(Cl)ccc2NS(C)(=O)=O)n1` [Example 80, N-(4-chloro-2-((5-chloro-2-((2-methoxy-5-methyl-4-(4-(4-methylpiperazin-1-yl)piperidin-1-yl)phenyl)amino)pyrimidin-4-yl)amino)phenyl)methanesulfonamide], the GI50 was 100 to 500 nM in test [1]; 1 to 25 nM in test [2]; 1 to 25 nM in test [3]; 1 to 25 nM in test [4]; 1 to 25 nM in test [5]; 2000 to 10000 nM in test [6].

Take `COc1cc(N2CCC(N3CCN(C)CC3)CC2)c(C)cc1Nc1ncc(Br)c(Nc2cc(Cl)ccc2NS(C)(=O)=O)n1` [Example 85]: the 50% growth inhibitory concentration (GI50) in test [1] was 100 to 500 nM; in test [2], 1 to 25 nM; in test [3] it was 1 to 25 nM; in test [4], 1 to 25 nM; in test [5], 1 to 25 nM; in test [6], 500 to 2000 nM.

For `COc1nc(N2CCC(N3CCN(C)CC3)CC2)c(C)cc1Nc1ncc(Br)c(Nc2cc(Cl)ccc2NS(C)(=O)=O)n1` [Example 86, N-(2-((5-bromo-2-((2-methoxy-5-methyl-6-(4-(4-methylpiperazin-1-yl)piperidin-1-yl)pyridin-3-yl)amino)pyrimidin-4-yl)amino)-4-chlorophenyl)methanesulfonamide], the GI50 in test [1] is 500 to 2000 nM; in test [2], 25 to 100 nM; in test [3] it was 1 to 25 nM; in test [4] it was 1 to 25 nM; in test [5], 25 to 100 nM; in test [6], 2000 to 10000 nM.

As to `CN1CCN(C2CCN(c3ccc(Nc4ncc(Br)c(Nc5cc(Cl)ccc5NS(C)(=O)=O)n4)cc3F)CC2)CC1` [Example 87, N-(2-((5-bromo-2-((3-fluoro-4-(4-(4-methylpiperazin-1-yl)piperidin-1-yl)phenyl)amino)pyrimidin-4-yl)amino)-4-chlorophenyl)methanesulfonamide], the GI50 in test [1] is 100 to 500 nM; in test [2], 25 to 100 nM; in test [3] it was 25 to 100 nM; in test [4] it was 25 to 100 nM; in test [5], 25 to 100 nM; in test [6], 100 to 500 nM.

Turning to `COc1cc(N2CCC(N3CCN(C)CC3)CC2)c(Cl)cc1Nc1ncc(Br)c(Nc2cc(Cl)ccc2NS(C)(=O)=O)n1` [Example 88, N-(2-((5-bromo-2-((5-chloro-2-methoxy-4-(4-(4-methylpiperazin-1-yl)piperidin-1-yl)phenyl)amino)pyrimidin-4-yl)amino)-4-chlorophenyl)methanesulfonamide], the GI50 lay in the range of 100 to 500 nM in test [1]; 1 to 25 nM in test [2]; 1 to 25 nM in test [3]; 1 to 25 nM in test [4]; 1 to 25 nM in test [5]; 500 to 2000 nM in test [6].

Take `COc1cc(N2CCC(N3CCCN(C)CC3)CC2)c(C)cc1Nc1ncc(Br)c(Nc2cc(Cl)ccc2NS(C)(=O)=O)n1` [Example 89]: the GI50 in test [1] is 100 to 500 nM; in test [2], 1 to 25 nM; in test [3] it was 1 to 25 nM; in test [4] it was 25 to 100 nM; in test [5], 1 to 25 nM; in test [6], 500 to 2000 nM.

For `COc1cc(N2CCC(N3CCCC(N(C)C)C3)CC2)c(C)cc1Nc1ncc(Br)c(Nc2cc(Cl)ccc2NS(C)(=O)=O)n1` (stereo not drawn) [Example 90, N-(2-((5-Bromo-2-((4-(3-(dimethylamino)-[1,4′-bipiperidin]-1′-yl)-2-methoxy-5-methylphenyl)amino)pyrimidin-4-yl)amino)-4-chlorophenyl)methanesulfonamide], the GI50 was in the range of 100 to 500 nM in test [1]; 1 to 25 nM in test [2]; 1 to 25 nM in test [3]; 1 to 25 nM in test [4]; 1 to 25 nM in test [5]; 500 to 2000 nM in test [6].

In the case of `COc1cc(N2CCC(N3CCNCC3)CC2)c(C)cc1Nc1ncc(Br)c(Nc2cc(Cl)ccc2NS(C)(=O)=O)n1` [Example 94, N-(2-((5-bromo-2-((2-methoxy-5-methyl-4-(4-(piperazin-1-yl)piperidin-1-yl)phenyl)amino)pyrimidin-4-yl)amino)-4-chlorophenyl)methanesulfonamide], the 50% growth inhibitory concentration (GI50) lay in the range of 25 to 100 nM in test [1]; 1 to 25 nM in test [2]; 1 to 25 nM in test [3]; 1 to 25 nM in test [4]; 1 to 25 nM in test [5]; 500 to 2000 nM in test [6].
